Measured values reported in article PMC6886798, “Expression of myeloid Src-family kinases is associated with poor prognosis in AML and influences Flt3-ITD kinase inhibitor acquired resistance” (PLoS ONE, 2019).
Read-outs that look alike come from different tables or passages of the source.

Key:
VEGFR2 = molecular target: T1, VEGFR2 (Homo sapiens, UniProt P35968); assay: KINOMEscan; type: binding; details: 1.0 µM
T1 construct: DNA tag (qPCR barcode); purchased Eurofins/DiscoverX KINOMEscan scanMAX
Method: (§4) Kinase retention to the immobilized ligand is then measured using quantitative real-time PCR for each kinase-specific DNA barcode.

HCK = molecular target: T2, HCK (Homo sapiens, UniProt P08631); assay: KINOMEscan; type: binding; details: 1.0 µM
T2 construct: purchased Eurofins/DiscoverX KINOMEscan scanMAX
Method: as §4

Lyn T338L = molecular target: T3, Lyn T338L (Homo sapiens, UniProt P07948, T319L); assay: Z'-LYTE in vitro kinase assay; type: biochemical; details: read-out: A-419259 IC50, Fig 5B, ATP at Km, mean ± SE, three independent determinations
T3 construct: Recombinant near-full-length kinases, consisting of the SH2, SH3 and kinase domains plus the negative regulatory tail; made in house; host or cells: E. coli BL21Star (DE3), co-expressed with Csk and PTP1B

Hck T338F = molecular target: T4, Hck T338F (Homo sapiens, UniProt P08631, T333F); assay: Z'-LYTE in vitro kinase assay; type: biochemical
T4 construct: Recombinant near-full-length kinases, consisting of the SH2, SH3 and kinase domains plus the negative regulatory tail; made in house; host or cells: E. coli BL21Star (DE3), co-expressed with Csk and PTP1B

Lyn T338M = molecular target: T5, Lyn T338M (Homo sapiens, UniProt P07948, T319M); assay: Z'-LYTE in vitro kinase assay; type: biochemical; details: read-out: A-419259 IC50, Fig 5B, ATP at Km, mean ± SE, three independent determinations
T5 construct: Recombinant near-full-length kinases, consisting of the SH2, SH3 and kinase domains plus the negative regulatory tail; made in house; host or cells: E. coli BL21Star (DE3), co-expressed with Csk and PTP1B

[1] = tested on: MOLM14 R1 (A-419259-resistant population); assay: CellTiter-Blue cell viability; type: cell-based, human
Method: (§1) Cell viability was assessed using the CellTiter-Blue reagent according to the manufacturer’s instructions (Promega). Fluorescence intensity, which correlates directly with viable cell number, was measured using a SpectraMax M5 microplate reader. Each experiment included three technical replicates per condition, and each experiment was repeated at least three times. […] Viability of each cell population was measured three times per week using the CellTiter-Blue assay.

[2] = tested on: MV4-11 R3 (A-419259-resistant population); assay: CellTiter-Blue cell viability; type: cell-based, human
Method: as §1

[3] = tested on: MOLM14 R3 (A-419259-resistant population); assay: CellTiter-Blue cell viability; type: cell-based, human
Method: as §1

[4] = tested on: MOLM14 R2 (A-419259-resistant population); assay: CellTiter-Blue cell viability; type: cell-based, human
Method: as §1

[5] = tested on: MOLM13 R3 (A-419259-resistant population); assay: CellTiter-Blue cell viability; type: cell-based, human
Method: as §1

[6] = tested on: MV4-11 R2 (A-419259-resistant population); assay: CellTiter-Blue cell viability; type: cell-based, human
Method: as §1

[7] = tested on: TF-1/FLT3-ITD + Fgr-T338M cells; assay: CellTiter-Blue cell viability; type: cell-based, human
Method: (§2) Full-length cDNA clones of each kinase were subcloned into the retroviral expression vectors pMSCV-neo or pMSCV-puro (Clontech). High-titer retroviral stocks were produced in 293T cells co-transfected with each pMSCV construct and an amphotropic packaging vector. TF-1 cells (10^6) were resuspended in 5.0 mL of undiluted viral supernatant and centrifuged at 1,000 × g for 4 h at 18 °C in the presence of 4 μg/mL Polybrene (Sigma-Aldrich) to enhance viral transduction. Forty-eight hours after infection, the cells began a two-week selection period with 400 μg/ml G-418 (neo vectors) or 3 μg/mL puromycin (puro vectors). Following selection, cells were maintained with 200 μg/ml G418 or 1 μg/mL puromycin. For double transduction experiments, TF-1 cells were first infected with the pMSCV-neo-Flt3-ITD virus, selected with G418, followed by the pMSCV-puro virus carrying Hck or Fgr and puromycin selection. All TF-1 cell populations that expressed Flt3-ITD (including inhibitor-resistant mutants) proliferated in a GM-CSF-independent manner, and were therefore subcultured in the absence of GM-CSF.
(§3) Cells were seeded at 10^5 per mL in the presence or absence of inhibitors with DMSO as carrier solvent (0.1% final). Cell viability was assessed using the CellTiter-Blue reagent according to the manufacturer’s instructions (Promega). Fluorescence intensity, which correlates directly with viable cell number, was measured using a SpectraMax M5 microplate reader. Each experiment included three technical replicates per condition, and each experiment was repeated at least three times.

[8] = tested on: TF-1/Flt3-ITD + Hck cells; assay: CellTiter-Blue cell viability; type: cell-based, human; details: Fig 3; Flt3-ITD: WT; SFK: Hck; 72 hours; read-out: IC50, nM (growth inhibition)
Method: as §2, §3

[9] = tested on: TF-1/Flt3-ITD N676S + Hck cells; assay: CellTiter-Blue cell viability; type: cell-based, human; details: S9 Fig, 48 h
Method: as §2, §3

[10] = tested on: TF-1/Flt3-ITD + Fgr cells; assay: CellTiter-Blue cell viability; type: cell-based, human; details: Fig 3; Flt3-ITD: WT; SFK: Fgr; 72 hours; read-out: IC50, nM (growth inhibition)
Method: as §2, §3

[11] = tested on: TF-1/Flt3-ITD D835Y + Hck cells; assay: CellTiter-Blue cell viability; type: cell-based, human; details: Fig 3, SFK: Hck, 72 hours, read-out: IC50, nM (growth inhibition)
Method: as §2, §3

[12] = tested on: TF-1/Flt3-ITD N676S cells; assay: CellTiter-Blue cell viability; type: cell-based, human
Method: as §2, §3

TF-1/Flt3-ITD cells = assay: CellTiter-Blue cell viability; type: cell-based, human; details: 72 hours
Method: as §2, §3

LYN = molecular target: T6, LYN (Homo sapiens, UniProt P07948); assay: KINOMEscan; type: binding; details: 1.0 µM
T6 construct: purchased Eurofins/DiscoverX KINOMEscan scanMAX
Method: as §4

468 kinases = assay: KINOMEscan scanMAX profile, overall selectivity; type: binding, human; details: 1 μM; 468 kinase targets
Method: as §4

Fgr T338M = molecular target: T7, Fgr T338M (Homo sapiens, UniProt P09769, T334M); assay: Z'-LYTE in vitro kinase assay; type: biochemical
T7 construct: Recombinant near-full-length kinases, consisting of the SH2, SH3 and kinase domains plus the negative regulatory tail; made in house; host or cells: E. coli BL21Star (DE3), co-expressed with Csk and PTP1B
Method: Assays were performed in quadruplicate in 384-well low volume, non-binding, black polystyrene microplates (Corning) according to the manufacturer’s instructions. Briefly, this assay measures phosphorylation of the Tyr2 peptide substrate which is tagged with coumarin and fluorescein on its N- and C-termini, respectively, to form a FRET pair. After the kinase reaction, a development step involves site-specific proteolytic cleavage of the unphosphorylated but not the phosphorylated peptide. […] Kinase reactions were run in 50 mM HEPES, pH 7.5, 10 mM MgCl2, 1 mM EGTA, and 0.01% BRIJ-35 (buffer supplied by the manufacturer). […] Following incubation for 1 h at ambient temperature, reactions were quenched by addition of the development protease, and coumarin and fluorescein fluorescence were measured 1 h later on a Molecular Devices SpectraMax M5 plate reader. […] For experiments with inhibitors, compounds were preincubated with kinase for 30 min prior to initiation of the reaction by the addition of ATP.

[13] = tested on: Flt3-ITD N676S in TF-1 cells; assay: Flt3 immunoprecipitation, anti-phosphotyrosine immunoblot; type: cell-based, human; details: vs Flt3-ITD; overnight
Method: Immunoprecipitation reactions were incubated overnight at 4 °C.

Lyn T338F = molecular target: T8, Lyn T338F (Homo sapiens, UniProt P07948, T319F); assay: Z'-LYTE in vitro kinase assay; type: biochemical; details: read-out: A-419259 IC50, Fig 5B, ATP at Km, mean ± SE, three independent determinations
T8 construct: Recombinant near-full-length kinases, consisting of the SH2, SH3 and kinase domains plus the negative regulatory tail; made in house; host or cells: E. coli BL21Star (DE3), co-expressed with Csk and PTP1B

[14] = read-out: A-419259 Sensitivity (IC50, nM) Initial, mean ± SE (n = 3)
[15] = read-out: A-419259 Sensitivity (IC50, nM) Post-holiday, after 4 weeks passage in the absence of inhibitor, mean ± SE (n = 3)

T4 sequence (P08631 78-526 T333F limits assumed): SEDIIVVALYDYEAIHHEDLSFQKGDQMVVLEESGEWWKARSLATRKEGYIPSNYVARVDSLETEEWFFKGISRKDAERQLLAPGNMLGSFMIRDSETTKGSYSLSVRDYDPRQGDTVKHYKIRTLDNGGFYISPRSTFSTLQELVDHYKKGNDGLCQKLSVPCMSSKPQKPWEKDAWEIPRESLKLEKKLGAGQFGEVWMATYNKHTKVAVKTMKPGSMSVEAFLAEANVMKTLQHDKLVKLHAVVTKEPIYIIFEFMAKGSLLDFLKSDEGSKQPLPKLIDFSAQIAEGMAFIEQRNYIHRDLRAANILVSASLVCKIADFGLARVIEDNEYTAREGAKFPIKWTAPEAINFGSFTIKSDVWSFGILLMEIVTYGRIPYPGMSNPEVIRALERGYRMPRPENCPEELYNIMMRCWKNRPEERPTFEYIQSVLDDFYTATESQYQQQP
T2 sequence (P08631 whole entry): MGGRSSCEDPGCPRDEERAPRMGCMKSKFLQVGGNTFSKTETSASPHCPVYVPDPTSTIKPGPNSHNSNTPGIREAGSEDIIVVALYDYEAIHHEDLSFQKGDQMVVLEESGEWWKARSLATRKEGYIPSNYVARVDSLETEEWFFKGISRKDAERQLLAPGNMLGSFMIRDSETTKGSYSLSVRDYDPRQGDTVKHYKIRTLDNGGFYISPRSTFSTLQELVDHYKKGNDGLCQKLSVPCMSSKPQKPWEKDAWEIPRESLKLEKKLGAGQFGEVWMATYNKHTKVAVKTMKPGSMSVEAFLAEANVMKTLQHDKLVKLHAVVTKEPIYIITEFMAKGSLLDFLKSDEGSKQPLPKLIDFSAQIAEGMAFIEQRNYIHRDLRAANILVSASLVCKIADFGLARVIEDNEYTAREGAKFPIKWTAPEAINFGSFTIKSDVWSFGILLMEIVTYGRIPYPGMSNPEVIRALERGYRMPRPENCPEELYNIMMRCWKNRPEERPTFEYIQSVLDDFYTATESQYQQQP
T1 sequence (P35968 20-1356): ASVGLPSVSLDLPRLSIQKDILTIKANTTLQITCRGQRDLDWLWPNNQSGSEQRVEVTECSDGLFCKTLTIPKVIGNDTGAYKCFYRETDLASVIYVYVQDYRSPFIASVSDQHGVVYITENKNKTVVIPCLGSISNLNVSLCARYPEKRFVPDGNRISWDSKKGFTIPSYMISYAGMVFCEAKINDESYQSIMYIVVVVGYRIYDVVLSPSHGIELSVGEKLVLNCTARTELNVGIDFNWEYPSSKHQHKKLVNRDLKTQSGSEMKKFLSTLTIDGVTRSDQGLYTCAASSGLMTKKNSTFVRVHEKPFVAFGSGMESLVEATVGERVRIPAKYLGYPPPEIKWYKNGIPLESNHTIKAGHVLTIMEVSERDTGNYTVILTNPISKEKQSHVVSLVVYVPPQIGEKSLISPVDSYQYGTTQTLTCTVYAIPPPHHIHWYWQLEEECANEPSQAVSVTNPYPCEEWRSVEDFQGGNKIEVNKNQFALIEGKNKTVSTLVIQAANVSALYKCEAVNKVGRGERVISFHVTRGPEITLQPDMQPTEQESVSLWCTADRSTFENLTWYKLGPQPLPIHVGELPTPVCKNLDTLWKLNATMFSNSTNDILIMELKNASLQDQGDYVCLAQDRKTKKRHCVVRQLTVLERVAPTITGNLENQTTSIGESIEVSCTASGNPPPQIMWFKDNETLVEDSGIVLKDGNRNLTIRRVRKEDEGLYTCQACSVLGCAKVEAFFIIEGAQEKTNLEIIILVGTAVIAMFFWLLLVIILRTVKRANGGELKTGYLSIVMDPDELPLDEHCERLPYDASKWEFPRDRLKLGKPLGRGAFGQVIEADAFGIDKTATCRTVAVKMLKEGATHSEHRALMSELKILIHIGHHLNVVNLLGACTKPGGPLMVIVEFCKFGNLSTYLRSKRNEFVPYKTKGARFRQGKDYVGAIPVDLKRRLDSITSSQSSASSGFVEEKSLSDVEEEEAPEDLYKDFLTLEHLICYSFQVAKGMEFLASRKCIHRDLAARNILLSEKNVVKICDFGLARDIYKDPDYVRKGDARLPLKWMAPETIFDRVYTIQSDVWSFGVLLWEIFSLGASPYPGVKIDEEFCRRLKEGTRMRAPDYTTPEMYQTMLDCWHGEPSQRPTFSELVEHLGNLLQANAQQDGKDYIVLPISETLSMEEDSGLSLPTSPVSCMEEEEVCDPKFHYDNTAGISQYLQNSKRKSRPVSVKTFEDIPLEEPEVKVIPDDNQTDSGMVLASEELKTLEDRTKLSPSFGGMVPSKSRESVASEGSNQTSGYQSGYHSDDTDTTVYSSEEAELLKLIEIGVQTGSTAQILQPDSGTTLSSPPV
T3 sequence (P07948 63-512 T319L limits assumed): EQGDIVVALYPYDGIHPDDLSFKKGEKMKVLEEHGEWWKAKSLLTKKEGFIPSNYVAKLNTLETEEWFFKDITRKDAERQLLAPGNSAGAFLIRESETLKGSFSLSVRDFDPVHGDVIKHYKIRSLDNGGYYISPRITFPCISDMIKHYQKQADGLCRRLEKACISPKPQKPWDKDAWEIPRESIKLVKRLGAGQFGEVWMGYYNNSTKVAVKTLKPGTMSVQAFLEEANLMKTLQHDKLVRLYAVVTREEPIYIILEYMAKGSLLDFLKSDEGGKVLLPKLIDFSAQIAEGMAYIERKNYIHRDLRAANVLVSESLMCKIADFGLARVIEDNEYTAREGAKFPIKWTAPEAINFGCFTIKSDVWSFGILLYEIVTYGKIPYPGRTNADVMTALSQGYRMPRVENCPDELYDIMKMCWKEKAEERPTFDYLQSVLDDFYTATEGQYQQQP
T6 sequence (P07948 whole entry): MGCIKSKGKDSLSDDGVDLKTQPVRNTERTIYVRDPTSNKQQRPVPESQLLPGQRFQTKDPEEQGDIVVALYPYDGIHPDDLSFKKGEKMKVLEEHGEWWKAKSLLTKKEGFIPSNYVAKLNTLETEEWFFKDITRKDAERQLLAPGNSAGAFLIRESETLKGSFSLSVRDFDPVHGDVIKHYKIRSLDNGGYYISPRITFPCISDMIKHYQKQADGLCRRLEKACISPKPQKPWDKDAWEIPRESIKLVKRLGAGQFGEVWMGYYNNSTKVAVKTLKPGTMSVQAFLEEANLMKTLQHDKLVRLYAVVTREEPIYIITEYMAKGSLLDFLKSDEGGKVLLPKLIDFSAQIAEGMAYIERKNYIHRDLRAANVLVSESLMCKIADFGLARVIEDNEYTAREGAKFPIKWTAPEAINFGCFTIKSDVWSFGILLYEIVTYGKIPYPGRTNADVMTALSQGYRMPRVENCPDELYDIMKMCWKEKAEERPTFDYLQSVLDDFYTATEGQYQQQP
T8 sequence (P07948 63-512 T319F limits assumed): as the sequence (P07948 63-512 T319L limits assumed) above, with L257F counted along it
T5 sequence (P07948 63-512 T319M limits assumed): as the sequence (P07948 63-512 T319L limits assumed) above, with L257M counted along it

SMILES: CN1CCN(C2CCC(n3cc(-c4ccc(Oc5ccccc5)cc4)c4c(N)ncnc43)CC2)CC1 (stereo not drawn) [A-419259]
- % Control (VEGFR2): 24%
- % Control (HCK): 1.9%
- IC50 (Lyn T338L): 129.7 ± 1.1 nM
- reduction of kinase sensitivity to A-419259 (Hck T338F; Hck gatekeeper threonine to phenylalanine, vs wild-type): ~5 fold
- IC50 (Hck T338F; read-out: A-419259 IC50, Fig 5B, Hck T338F, ATP at Km, mean ± SE, three independent determinations): 201 ± 1 nM
- IC50 (Lyn T338M): 127.8 ± 1 nM
- IC50 [1, 14]: 187 ± 20.8 nM
- IC50 [1, 15]: 283 ± 84.2 nM
- IC50 [2, 14]: 125 ± 7.3 nM
- IC50 [2, 15]: 91.6 ± 15.6 nM
- IC50 [3, 14]: 213 ± 73.7 nM
- IC50 [3, 15]: 178 ± 46.1 nM
- IC50 [4, 14]: 193 ± 51.4 nM
- IC50 [4, 15]: 326 ± 38.4 nM
- IC50 [5, 14]: 473 ± 53.9 nM
- IC50 [5, 15]: 436 ± 107 nM
- IC50 [6, 14]: 410 ± 136 nM
- IC50 [6, 15]: 597 ± 76.3 nM
- resistance to the inhibitor in cells [7]: about 3 fold
- IC50 [8]: 15.4 nM
- IC50 [9]: 129 nM
- IC50 [10]: 22.6 nM
- IC50 [11]: > 100 nM
- IC50 ([12]; Fig 9A, 72 hours, read-out: IC50 (growth arrest)): 176 nM
- IC50 ([12]; S9 Fig, N676S control, 48 h, read-out: IC50 (cell viability)): 89.1 nM
- IC50 (TF-1/Flt3-ITD cells; Fig 3, Flt3-ITD: WT, SFK: none, read-out: IC50, nM (growth inhibition)): 18.2 nM
- IC50 (TF-1/Flt3-ITD cells; Fig 9A, control TF-1/Flt3-ITD cells, read-out: IC50 (growth arrest)): 26 nM
- % Control (LYN): 1.7%
- kinase interactions (468 kinases): 19
- resistance to A-419259 (Fgr T338M; Fgr gatekeeper methionine substitution, vs wild-type): 2.5 fold
- IC50 (Fgr T338M; read-out: A-419259 IC50, Fig 5B, Fgr T338M, ATP at Km, mean ± SE, three independent determinations): 160.6 ± 1.1 nM
- sensitivity of phosphotyrosine content to A-419259 [13]: significantly reduced sensitivity
- IC50 (Lyn T338F): 242 ± 1.2 nM
